Source: the NIST ThermoML archive (doi:10.1016/j.jct.2017.10.002)
Values joined by “and” are separate entries in the source; they are usually repeats but may differ in a detail not shown here. Equal entries are not always repeated. Numbers after ± are expanded uncertainties.

Assay: molar heat capacity at constant pressure
Details: 101.33 kPa, relaxation calorimetry

CCc1ncc[n-]1.CCc1ncc[n-]1.[Zn+2] [zinc(II) 2-ethylimidazolide]
molar heat capacity at constant pressure
Details | Crystal | Glass
130.99 K | 145.58 ± 5.9 J/K/mol | –
131.26 K | – | 150.5 ± 6.1 J/K/mol
131.27 K | 153.88 ± 6.2 J/K/mol | –
131.28 K | 157.12 ± 6.4 J/K/mol | –
140 K | 152.15 ± 6.2 J/K/mol and 161.18 ± 6.5 J/K/mol and 164.35 ± 6.7 J/K/mol | 157.54 ± 6.4 J/K/mol
141.06 K | 152.68 ± 6.2 J/K/mol | –
141.38 K | – | 158.36 ± 6.4 J/K/mol
141.4 K | 162.12 ± 6.6 J/K/mol | –
141.42 K | 164.9 ± 6.7 J/K/mol | –
150 K | 159.28 ± 6.5 J/K/mol and 168.81 ± 6.9 J/K/mol and 172.14 ± 7 J/K/mol | 165.02 ± 6.7 J/K/mol
151.12 K | 159.89 ± 6.5 J/K/mol | –
151.43 K | – | 166.3 ± 6.8 J/K/mol
151.46 K | 170.21 ± 6.9 J/K/mol | –
151.47 K | 173.16 ± 7 J/K/mol | –
160 K | 166.18 ± 6.8 J/K/mol and 176.23 ± 7.2 J/K/mol and 179.71 ± 7.3 J/K/mol | 172.32 ± 7 J/K/mol
161.25 K | 166.65 ± 6.8 J/K/mol | –
161.56 K | – | 173.36 ± 7 J/K/mol
161.59 K | 177.25 ± 7.2 J/K/mol | –
161.61 K | 180.61 ± 7.3 J/K/mol | –
170 K | 172.92 ± 7 J/K/mol and 183.53 ± 7.5 J/K/mol and 187.14 ± 7.6 J/K/mol | 179.51 ± 7.3 J/K/mol
171.35 K | 173.33 ± 7 J/K/mol | –
171.6 K | – | 180.21 ± 7.3 J/K/mol
171.65 K | 184.06 ± 7.5 J/K/mol | –
171.67 K | 188.03 ± 7.6 J/K/mol | –
180 K | 179.56 ± 7.3 J/K/mol and 190.75 ± 7.8 J/K/mol and 194.49 ± 7.9 J/K/mol | 186.63 ± 7.6 J/K/mol
181.43 K | 180.52 ± 7.3 J/K/mol | –
181.69 K | – | 187.69 ± 7.6 J/K/mol
181.74 K | 192.24 ± 7.8 J/K/mol | –
181.77 K | 196.44 ± 8 J/K/mol | –
190 K | 186.14 ± 7.6 J/K/mol and 197.94 ± 8 J/K/mol and 201.82 ± 8.2 J/K/mol | 193.72 ± 7.9 J/K/mol
191.5 K | 187.51 ± 7.6 J/K/mol | –
191.77 K | – | 195.38 ± 7.9 J/K/mol
191.83 K | 199.47 ± 8.1 J/K/mol | –
191.86 K | 203.36 ± 8.3 J/K/mol | –
200 K | 192.7 ± 7.8 J/K/mol and 205.14 ± 8.3 J/K/mol and 209.16 ± 8.5 J/K/mol | 200.81 ± 8.2 J/K/mol
201.6 K | 194.57 ± 7.9 J/K/mol | –
201.91 K | – | 202.56 ± 8.2 J/K/mol
201.98 K | 207.07 ± 8.4 J/K/mol | –
202.01 K | 211.73 ± 8.6 J/K/mol | –
210 K | 199.27 ± 8.1 J/K/mol and 212.36 ± 8.6 J/K/mol and 216.56 ± 8.8 J/K/mol | 207.92 ± 8.4 J/K/mol
211.69 K | 200.92 ± 8.2 J/K/mol | –
211.98 K | – | 209.72 ± 8.5 J/K/mol
212.06 K | 214.46 ± 8.7 J/K/mol | –
212.09 K | 218.97 ± 8.9 J/K/mol | –
220 K | 205.88 ± 8.4 J/K/mol and 219.65 ± 8.9 J/K/mol and 224.03 ± 9.1 J/K/mol | 215.06 ± 8.7 J/K/mol
221.78 K | 207.56 ± 8.4 J/K/mol | –
221.99 K | – | 216.74 ± 8.8 J/K/mol
222.09 K | 221.43 ± 9 J/K/mol | –
222.12 K | 225.68 ± 9.2 J/K/mol | –
230 K | 212.55 ± 8.6 J/K/mol and 227.01 ± 9.2 J/K/mol and 231.6 ± 9.4 J/K/mol | 222.25 ± 9 J/K/mol
231.87 K | 213.47 ± 8.7 J/K/mol | –
232.05 K | – | 223.82 ± 9.1 J/K/mol
232.17 K | 228.3 ± 9.3 J/K/mol | –
232.21 K | 233.03 ± 9.5 J/K/mol | –
240 K | 219.29 ± 8.9 J/K/mol and 234.46 ± 9.5 J/K/mol and 239.29 ± 9.7 J/K/mol | 229.49 ± 9.3 J/K/mol
241.95 K | 220.69 ± 9 J/K/mol | –
242.11 K | – | 230.23 ± 9.3 J/K/mol
242.25 K | 235.6 ± 9.6 J/K/mol | –
242.28 K | 240.2 ± 9.8 J/K/mol | –
250 K | 226.12 ± 9.2 J/K/mol and 242.01 ± 9.8 J/K/mol and 247.11 ± 10 J/K/mol | 236.79 ± 9.6 J/K/mol
252.04 K | 227.71 ± 9.2 J/K/mol | –
252.26 K | – | 238.21 ± 9.7 J/K/mol
252.41 K | 243.81 ± 9.9 J/K/mol | –
252.44 K | 248.76 ± 10 J/K/mol | –
260 K | 233.06 ± 9.5 J/K/mol and 249.68 ± 10 J/K/mol and 255.08 ± 10 J/K/mol | 244.16 ± 9.9 J/K/mol
262.15 K | 234.66 ± 9.5 J/K/mol | –
262.32 K | – | 245.55 ± 10 J/K/mol
262.49 K | 251.06 ± 10 J/K/mol | –
262.53 K | 256.2 ± 10 J/K/mol | –
270 K | 240.1 ± 9.8 J/K/mol and 257.46 ± 10 J/K/mol and 263.21 ± 11 J/K/mol | 251.6 ± 10 J/K/mol
272.26 K | 239.9 ± 9.7 J/K/mol | –
272.38 K | – | 253.18 ± 10 J/K/mol
272.57 K | 259.14 ± 11 J/K/mol | –
272.61 K | 264.93 ± 11 J/K/mol | –
273.15 K | 242.35 ± 9.8 J/K/mol and 259.94 ± 11 J/K/mol and 265.8 ± 11 J/K/mol | 253.96 ± 10 J/K/mol
280 K | 247.27 ± 10 J/K/mol and 265.38 ± 11 J/K/mol and 271.5 ± 11 J/K/mol | 259.1 ± 11 J/K/mol
282.33 K | 249.22 ± 10 J/K/mol | –
282.34 K | – | 261.68 ± 11 J/K/mol
282.56 K | 268.2 ± 11 J/K/mol | –
282.6 K | 274.43 ± 11 J/K/mol | –
290 K | 254.56 ± 10 J/K/mol and 273.43 ± 11 J/K/mol and 279.96 ± 11 J/K/mol | 266.68 ± 11 J/K/mol
292.42 K | 254.66 ± 10 J/K/mol | –
292.48 K | – | 268.78 ± 11 J/K/mol
292.71 K | 275.78 ± 11 J/K/mol | –
292.77 K | 282.45 ± 11 J/K/mol | –
298.15 K | 260.6 ± 11 J/K/mol and 280.09 ± 11 J/K/mol and 287 ± 12 J/K/mol | 272.9 ± 11 J/K/mol
300 K | 261.99 ± 11 J/K/mol and 281.62 ± 11 J/K/mol and 288.61 ± 12 J/K/mol | 274.31 ± 11 J/K/mol
302.52 K | 265.92 ± 11 J/K/mol | –
302.54 K | – | 275.95 ± 11 J/K/mol
302.81 K | 283.82 ± 12 J/K/mol | –
302.88 K | 291.43 ± 12 J/K/mol | –
